Measurements: CN110179802A (priority 2019, dated 2019)

Tests used:
[1] = tested on: Staphylococcus aureus (金黄色葡萄球菌); conditions: cited from earlier work
[2] = tested on: haemolytic activity of MRSA43300 culture supernatant on rabbit erythrocytes (MRSA43300培养物上清对兔红细胞的溶血活性); assay: Haemolytic activity of MRSA43300 culture supernatant on rabbit erythrocytes after co-culture at sub-inhibitory concentrations; assay type: cell-based, MRSA 43300 (Staphylococcus aureus); rabbit erythrocytes; conditions: for inhibition rate of haemolysis: 16 h at 37℃ with MRSA43300, 543 nm
Pyogeniccoccus (化脓链球菌) = conditions: cited from earlier work
HIa gene (HIa基因) = assay: Real-time PCR of HIa gene transcription in MRSA43300
MRSA43300 = assay: Antibacterial activity against MRSA43300; assay type: cell-based, Staphylococcus aureus (MRSA43300)
α-hemolysin (α-溶血素) = assay type: cell-based, Staphylococcus aureus (MRSA43300)
agrA gene (agrA基因) = assay: Real-time PCR of agrA gene transcription in MRSA43300
[3] = tested on: Mycoplasma pneumonia (肺炎支原体); conditions: cited from earlier work
[4] = tested on: Streptococcus pyogenes (酿脓链球菌); conditions: cited from earlier work
[5] = in vivo; cited from earlier work
MRSA = conditions: cited from earlier work
[6] = 1/2MIC, 1/4MIC, 1/8MIC, compared with control group

C=C[C@]1(C)C[C@@H](OC(=O)CSc2nc(N)cc(N)n2)[C@]2(C)[C@H](C)CC[C@]3(CCC(=O)[C@H]32)[C@@H](C)[C@@H]1O [14-O-[(4,6-二氨基嘧啶-2-基)巯乙酰基]姆体林]
antibacterial activity [1]: 良好的抑菌活性 | inhibition rate of haemolysis ([2]; 1/2MIC): 97.24±1.15% | inhibition rate of haemolysis ([2]; 1/4MIC): 96.4±2.1% | inhibition rate of haemolysis ([2]; 1/16MIC): 31.5±7.86% | inhibition of haemolytic activity, concentration dependence ([2]; sub-inhibitory concentrations, 1/2MIC to 1/32MIC): 抑制能力随药物浓度的升高而增强 | antibacterial activity (Pyogeniccoccus (化脓链球菌)): 良好的抑菌活性 | HIa gene transcription level (HIa gene (HIa基因); [6]): 与对照组相比差异极显著 | HIa gene transcription level (HIa gene (HIa基因); 1/16MIC, compared with control group): 与对照组相比差异显著 | HIa gene transcription level (HIa gene (HIa基因); 1/32MIC): 不影响HIa基因转录水平 | antibacterial activity (MRSA43300): 较好抑菌活性 | content of α-hemolysin in culture supernatant (α-hemolysin (α-溶血素)): 能减少培养物上清中的α-溶血素的含量,且呈明显的浓度依赖性 | agrA gene transcription level (agrA gene (agrA基因); [6]): 与对照组相比差异显著 | agrA gene transcription level (agrA gene (agrA基因); 1/16MIC): 没有明显的影响 | agrA gene transcription level (agrA gene (agrA基因); 1/32MIC): 不影响agrA的基因转录水平 | antibacterial activity [3]: 良好的抑菌活性 | antibacterial activity [4]: 良好的抑菌活性 | toxicity [5]: 毒性低 | antibacterial activity (MRSA): 良好的抑菌活性
